In brackets after ≈: the same amount, converted by molar mass.
Tests used:
[1] = Cytotoxicity (CC50) in TZM-bl cells; format: cell-based; details: human; TZM-bl cells (Table 3); read-out: CC50
HIV-1SF162 virus strain [2] = experiment: Inhibition of viral replication in PBMC infected with HIV-1SF162; format: cell-based; details: Human immunodeficiency virus 1; PBMC cells infected with HIV-1SF162; read-out: EC50
Description: (§1) The virus was titrated according to the modified method of Johnson & Byington. Briefly, the HIV-1 stock solution was subject to four-fold dilution in a 96-well plate (ten gradients) sextuplicate for each gradient, while setting six control-wells. Into each well was added 100 μl (5×10^6/ml) PHA-stimulated PBMC cells and final volume per well was 200 μl. The cells were cultured at 37° C. with 5% CO2. […] On the seventh day, the infected supernatant was collected and lysed with 0.5% Triton X100. The p24 antigen was detected by ELISA and TCID50 of virus was calculated according to Reed & Muench method (50% Tissue culture infection dose).
(§2) The starting concentration was 1 μM, six dilutions were obtained, and each well contained 200 μl mixture. While wells not containing drugs were set as control. […] After homogeneously mixed, the mixture was immediately added to 48-well plate containing diluted drug and each well was added with 200 μl of mixture. MVC was used as positive control. The cells were cultured at 37° C. with 5% CO2 for seven days (drug with the same concentration was added on the third day). The supernatant was collected, lysed and inactivated with 0.5% Triton X-100. The inhibition effect of drug on HIV-1 replication was detected using p24 antigen capture ELISA method.

HIV-1KM018 virus strain = experiment: Inhibition of viral replication in PBMC infected with HIV-1KM018; format: cell-based; details: Human immunodeficiency virus 1; PBMC cells infected with HIV-1KM018; read-out: EC50
Description: as §1, §2

HIV-1Ba-L virus strain [3] = experiment: Inhibition of viral replication in PBMC infected with HIV-1Ba-L; format: cell-based; details: Human immunodeficiency virus 1; PBMC cells infected with HIV-1Ba-L; read-out: EC50
Description: The virus was titrated according to the modified method of Johnson & Byington. Briefly, the HIV-1 stock solution was subject to four-fold dilution in a 96-well plate (ten gradients) sextuplicate for each gradient, while setting six control-wells. Into each well was added 100 μl (5×10^6/ml) PHA-stimulated PBMC cells and final volume per well was 200 μl. The cells were cultured at 37° C. with 5% CO2. On the third day, 100 μl of fresh RPMI-1640 complete medium was supplemented. On the seventh day, the infected supernatant was collected and lysed with 0.5% Triton X100. The p24 antigen was detected by ELISA and TCID50 of virus was calculated according to Reed & Muench method (50% Tissue culture infection dose).
The compound to be tested was subject to 5-fold dilution in 48-well plate with RPMI-1640 complete medium (containing 10% FBS). The starting concentration was 1 μM, six dilutions were obtained, and each well contained 200 μl mixture. While wells not containing drugs were set as control. Virus (MOI=0.01) was added to 5×10^6/ml of PBMC cells which have been stimulated by PHA for 72 h. After homogeneously mixed, the mixture was immediately added to 48-well plate containing diluted drug and each well was added with 200 μl of mixture. MVC was used as positive control. The cells were cultured at 37° C. with 5% CO2 for seven days (drug with the same concentration was added on the third day). The supernatant was collected, lysed and inactivated with 0.5% Triton X-100. The inhibition effect of drug on HIV-1 replication was detected using p24 antigen capture ELISA method.

[4] = Toxicity test of compounds on PBMC cells (MTT); format: cell-based; details: human, PHA stimulated PBMC; PBMC cells (Table 4)
Description: (§3) The compound to be tested was subject to 5-fold dilution in a 96-well microtiter plate with RPMI-1640 or DMEM complete medium (containing 10% FBS) (Six dilution) triplicate for each dilution and 100 μl for each well. While wells not containing drugs were set as control. Into each well was added 100 μl of 4×10^5/ml PM1, HOS-CD4-CCR5 cells or 100 μl of 5×10^6/ml PHA stimulated PBMC. The cells were cultured at 37° C. with 5% CO2 for three days (PBMC cells were cultured for seven days and 100 μl of fresh RPMI-1640 complete medium was supplemented on the third day). Cytotoxicity was tested with MTT assay. OD values were measured by ELx800 microplate reader. The detection wavelength was 570 nm, and the reference wavelength was 630 nm.

HIV-1Ba-L virus strain [5] = experiment: Inhibition of viral replication in HOS-CD4-CCR5 cells infected with HIV-1Ba-L; format: cell-based; details: Human immunodeficiency virus 1; HOS-CD4+-CCR5 cells infected with HIV-1Ba-L; read-out: EC50
Description: (§4) On the day before the test, 1×10^5/ml of HOS-CD4-CCR5 cells were inoculated in 96-well plates with 100 μl for each well. The compound to be tested was subject to 5-fold dilution in 96-well microtiter plate with DMEM complete medium (containing 10% FBS). The starting concentration was 1 μM and six dilutions were obtained. Triplicate wells were set for each dilution and each well contained 100 μl mixture. While wells not containing drugs were set as control. The supernatant was removed and 100 μl of drug was added and incubated for 2 h. Then 100 μl of HIV-1SF162 and HIV-1Ba-L were added to dilute supernatant. The cells were infected for 1 h, free virus was washed out and drug with the same final concentration was added. MVC was used as positive control. The cells were cultured at 37° C. with 5% CO2 for three days. The supernatant was collected, lysed and inactivated with 0.5% Triton X-100. The inhibition effect of drug on HIV-1 replication was detected using p24 antigen capture ELISA method.

HIV-1SF162 virus strain [6] = experiment: Inhibition of viral replication in HOS-CD4-CCR5 cells infected with HIV-1SF162; format: cell-based; details: Human immunodeficiency virus 1; HOS-CD4+-CCR5 cells infected with HIV-1SF162; read-out: EC50
Description: as §4

[7] = Toxicity test of compounds on HOS-CD4-CCR5 cells (MTT); format: cell-based; details: human; HOS-CD4+-CCR5 cells (Table 7)
Description: as §3

in vivo = details: male, rat
Description: The administration volume was 10 mL/kg and drug was formulated with DMSO/Tween 80/physiological saline (5:5:90, v/v/v). […] 2 h after dosing, the rats ate together.
At above time points, 0.3 ml of venous blood was taken from retrobulbar venous plexus of the rat and loaded into EDTA-2K anticoagulative tube. After centrifuged at 11000 rpm for 5 mm, the plasma was separated and frozen at −20° C. in a refrigerator.
The concentration of each compound in rat plasma was determined by LC/MS/MS.
The pharmacokinetic parameters after administration were calculated by using non-compartment model of WinNonlin 5.3 software (Pharsight Corporation, USA).

HIV-1SF162 virus strain [8] = experiment: Inhibition activity on TZM-bl cells infected with HIV-1SF162

For `Cc1nnc(C(C)C)n1C1CC2CCC(C1)N2CC[C@H](NC(=O)C1CCC(F)(F)CC1)c1cccs1` (stereo partly drawn) [Compound 14, 4,4-difluoro-N-[(1S)-3-[exo-3-(3-isopropyl-5-methyl-4H-1,2,4-triazol-4-yl)-8-azabicyclo[3.2.1]octane-8-yl]-1-(thiophen-2-yl)propyl]cyclohexane-1-carboxamide], the CC50 [1] was > 200 µg/mL, the EC50 (HIV-1SF162 virus strain [2]) was 0.00158 µg/mL (≈ 0.00304 µM) and the EC50 (HIV-1KM018 virus strain) was 0.00377 µg/mL (≈ 0.00725 µM). For the same compound, the EC50 (HIV-1Ba-L virus strain [3]) was 0.0197 µg/mL (≈ 0.0379 µM), the CC50 at 7 days [4] was 268 µg/mL (≈ 515 µM) and the EC50 (HIV-1Ba-L virus strain [5]) was 0.00074 µg/mL (≈ 0.00142 µM). The EC50 (HIV-1SF162 virus strain [6]) was 0.0131 µg/mL (≈ 0.0251 µM), the CC50 at 3 days [7] was 370 µg/mL (≈ 711 µM) and the bioavailability (in vivo) was 7.85%. The AUC(0-t) (in vivo; 10 mg/kg) was 7050 ng·h/mL, the AUC(0-inf) (in vivo; iv, 10 mg/kg) was 7060 ng·h/mL and the AUC(0-t) (in vivo; iv, 10 mg/kg) was 7050 ng·h/mL. It also gave a Cmax (in vivo; iv, 10 mg/kg) of 6840 ng/mL, an MRT (in vivo; iv, 10 mg/kg) of 0.71 h and a Tmax (in vivo; iv, 10 mg/kg) of 0.25 h. It also gave a half-life (in vivo; iv, 10 mg/kg) of 0.77 h, an AUC(0-inf) (in vivo; po, 20 mg/kg) of 1190 ng·h/mL and an AUC(0-t) (in vivo; po, 20 mg/kg) of 1110 ng·h/mL. For the same compound, the Cmax (in vivo; po, 20 mg/kg) was 266 ng/mL, the MRT (in vivo; po, 20 mg/kg) was 3.33 h and the Tmax (in vivo; po, 20 mg/kg) was 4 h. For the same compound, the bioavailability (in vivo; po, 20 mg/kg) was 7.85%, the half-life (in vivo; po, 20 mg/kg) was 2.12 h and the EC50 (HIV-1SF162 virus strain [8]; Human immunodeficiency virus 1, TZM-bl) was 0.00359 µg/mL (≈ 0.00691 µM). The “therapeutic index (TI)” value (HIV-1SF162 virus strain [8]; TZM-bl cells infected with HIV-1SF162) was >55710.31 and the “cytotoxicity in vitro and therapeutic index in words, versus positive control compound” value (HIV-1SF162 virus strain [8]; TZM-bl cells infected with HIV-1SF162, conclusion from Table 3) was “better than positive control compound”.
